Entries after “also recorded” stand apart in the source; their conditions may differ.
Columns and labels:
[1] = system: skin allograft mouse model; assay: Mouse skin allograft; assay type: in vivo
Description: Materials: DNA-PK inhibitor, NU7441 was purchased from Selleckchem.com and used in vivo at 10 mg/kg diluted in DMSO and 40% PEG or in vitro at 5 μM. Tacrolimus (FK506) was ordered for Sigma Aldrich and used at a concentration of 1 mg/kg in vivo.
Mouse skin allograft: To confirm that DNA-PK inhibitors could function as an immunosuppressant in vivo, mouse skin allograft studies were performed. All studies were performed under an approved IACUC protocol. Ears from donor BALBc mice were removed and split into two removing all cartilaginous material. The ear skin was placed on an incision made to the back of a recipient C57BI6 or DNA-PK knockout (NOD.CB17-Prkdc scid/J-20) mouse. The skin was sutured in 4 places using 6-0 nylon sutures. Wounds were wrapped in gauze and ban-daids and allowed to heal for 6 days before removing the bandage. Spleens were harvested from donor mice for splenocyte isolation. On Day 0 through Day 10 (the day of sacrifice) mice were injected (100 ul) daily with one of the following: saline, Tacrolimus (1 mg/kg), or NU7441 ([…]). Mice were monitored for rejection daily which was indicated by dark, black appearance. At the time of sacrifice, mice were euthanisized according to IACUC guidelines and skin grafts removed and fixed in formalin for histology. Spleens and blood were also collected.

[2] = system: mTOR; assay: mTOR (phospho-ser2448) ELISA and western blot in activated Jurkat cells; assay type: cell-based, human
Description: Western blot analysis: Nuclear extract lysates were separated on 3-8% Tris-Acetate gels (Invitrogen). Total cell lysates were separated on 4-20% Tris-Glycine gels (Bio-Rad). Gels were transferred onto PVDF membrane (Millipore) for 2 hours in the cold room at 100V. Immunoblotting was performed using following antibodies: pDNA-PKcs at S2056 (ab18192, Abcam), DNAPK (ab53701, Abcam), pNFAT2 at S237 (ab183023, Abcam), CABIN1 (12660S, Cell signaling), GAPDH (MAB374, Millipore), and Lamin B1 (ab16048, Abcam). HRP-conjugated secondary antibody anti-Rabbit and anti-Mouse (7074S and 7076S, Cell Signaling) was used.
Detection of calcineurin and mTOR activities: Calcineurin phosphatase activity was detected by Calcineurin Cellular Activity Assay Kit from Millipore (Billerica, MA) and mTOR signaling was detected by Calcium Detection Kit from Abcam (Cambridge, MA). The manufacturer's protocols were followed. Briefly, Jurkat cells (2 million cells/mL) were lysed using lysis buffer. For calcineurin activity, the cell lysates were desalted by gel filtration to remove free phosphates before the assay and were subjected to calcineurin activity assay. The absorbance of each sample was read at 620 nm using the plate reader. […] The absorbance of each sample was read at 450 nm using the plate reader.

[3] = system: NFAT; assay: Western blot of phosphorylated NFAT (s237) in activated Jurkat cells; assay type: cell-based, human; conditions: Jurkat activated with PMA+PHA
Description: Cell Culture: Human peripheral blood mononuclear cells (PBMC,) and Jurkat cells were purchased from ATCC (PCS-800-011, Manassas, VA). Cells were maintained at 37° C. in a humidified atmosphere composed of 5% CO2. Jurkat cells were cultured in RPMI 1640 medium which was supplemented with 10% FCS and human PBMC was cultured in RPMI 1640 medium which was supplemented with 10% FCS and pen/strep. Both Jurkat cells and PBMC were stimulated with PHA (50 ng/mL) and PMA (1 μg/mL) for 24 hours prior to harvesting for IL-2 detection or 6 hours prior for western blot analysis. The NU7441 DNA-PKcs inhibitor was added at varying concentrations at the time of stimulation.
Cell lysis and nuclear extract: Cells were washed with cold PBS twice and centrifuged at 5000 rpm for 5 minutes. For the nuclear extract, pellets were suspended with 800 μL of 10 mN HEPES lysis buffer (10 mM HEPES at pH 7.9, 10 mM KCl, 1 mM DTT, and 1× protease and phosphatase inhibitor) and incubated on ice for 15 minutes. 50 μL of NP-40 (10% in water) was added and the pellets were mixed for 10 seconds. Lysates were centrifuged for 5 minutes at 4° C. at 13,000 rpm. […]

[4] = system: NFAT; assay: Immunofluorescence of NFAT nuclear translocation in Jurkat cells; assay type: cell-based, human; design: dose or concentration left out as unconfirmed; conditions: Jurkat activated with PMA+PHA, inhibitor
Description: Immunofluorescence of NFAT: Jurkat cells were plated in poly-lysine treated 35 mm dish with glass-bottom (BioTek) overnight. The cells were fixed with 4% formaldehyde and permeabilized with permeabilization solution (0.2% TRITON X-100+OVA solution (0.1 mg/mL), 0.01% sodium azide). NFAT was probed with anti-NFAT2 (ab2796, Abcam) in permeabilization solution overnight at 4° C., and then washed with PBS. Fluorescein (FITC)-conjugated AffiniPure Donkey Anti-Mouse IgG (715-095-151, Jackson ImmunoResearch) was applied to the cells for 1 hour at room temperature. The cells were washed with PBS and ProLong Antifade reagent with DAPI (Molecular Probes) was applied. All samples were analyzed on an Olympus Fluoview FV1000 laser confocal microscope. Images from all microscopy experiments were processed using the FV10-ASW 3.1 Viewer (Olympus).

[5] = target: DNA-PKcs (Homo sapiens, UniProt P78527); conditions: reference [24]; cited from earlier work

Compound: O=c1cc(N2CCOCC2)oc2c(-c3cccc4c3sc3ccccc34)cccc12 [NU7441]
- level of necrosis of skin graft, average ([1]; Day 10, BALBc donor skin on C57BI6 recipient, daily injection Day 0 through Day 10): around 30%
- rejection in skin allograft mouse model ([1]; compared to control groups treated only with saline): reduces rejection
- visual examination of graft necrosis ([1]; treatment groups vs saline groups (severe necrosis)): majority with 0% necrosis
- mTOR activation (phosphorylated ser2448) [2]: did not alter mTOR activation; also recorded: does not alter mTOR activation
- NFAT phosphorylation at s237 [3]: remained phosphorylated; also recorded: inhibited the dephosphorylation of NFAT
- nuclear localization of NFAT [4]: nuclear localization was prevented; also recorded: blocked translocation of NFAT to the nucleus
- inhibition of DNA-PKcs [5]: potent and specific inhibitor
- interference with ATR or ATM activation [5]: does not interfere
